Data taken from US7314864B1, “Humanin, a polypeptide suppressing neuronal death” (Keio University, priority 1999, dated 2008).
Entries after “also recorded” stand apart in the source; their conditions may differ. No end group written: not given here.

Columns and labels:
[1] = test system: F11 cells transfected with FAD genes (V642I APP, NL-APP, M146L PS-1, N141I PS-2); assay: FAD gene-induced F11 cell death, trypan blue exclusion assay; assay type: cell-based, rat/mouse hybrid; details: for concentration giving complete antagonism/rescue of neuronal death: all four types of FAD genes; for neuroprotective activity relative to HNG: all types of cell death (FAD genes, Aβ); for suppression of FAD gene-induced cell death: 10 nM polypeptide
Method: (§1) F11 cells (Platika, D. et al. (1985) Proc. Natl. Acad. Sci. U.S.A. 82, 3499-3503; Yamatsuji, T. et al. (1996) Science 272, 1349-1352) were cultured in HamF-12 media containing 18% fetal bovine serum (FBS) and antibiotics. 7×10^4/well of F11 cells were seeded into a 6-well plate; cultured in HamF-12 containing 18% FBS for 12 to 16 hours; transfected 3 hours with plasmids encoding FAD genes and plasmids encoding HN (pHN, and such) by lipofection in the absence of serum (1 μg of FAD cDNA expression plasmid, 1 μg of HN cDNA expression plasmid, 4 μl of LipofectAMINE, 8 μl of Plus reagent); and then, were cultured for 2 hours in HamF-12 media containing 18% FBS. Then, culture media were exchanged with HamF-12 media containing 10% FBS; and the cells were cultured for additional 67 hours. 72 hours after transfection, cell death was measured by trypan blue exclusion assay. Experiments using synthetic HN polypeptides were conducted as follows: F11 cells (at 7×10^4/well in a 6-well plate) were transfected 3 hours with FAD genes in the absence of serum, as mentioned above; after cultivation for 2 hours in HamF-12 media containing 18% FBS, the cells were cultured for 67 hours in HamF-12 media containing 10% FBS with various concentrations of HN polypeptides; and cell death was measured by trypan blue exclusion assay. ALS-associated mutant cDNAs of SOD1 were also similarly transfected, and examined for their neurotoxicity.
(§2) Trypan blue exclusion assay was performed as follows. Without prewashing, the cells were suspended with gentle pipetting into a serum-free media. 50 μl of 0.4% trypan blue solution (Sigma, Cat. #T-8154) were added (final concentration of 0.08%) to 200 μl cell suspension, and the suspension was mixed at room temperature. Within 3 minutes of the trypan blue solution addition, stained cells were counted. Cell mortality was determined [100-cell survival rate (%)] based on the stained cell count. LDH assay was performed using a kit (LDH-Cytotoxic Test; Wako Pure Chemical Industries, Cat. #299-50601) by sampling 6 μl of media in which neurons were cultured. Calcein staining was performed as described in literature (Bozyczko-Coyne, D. et al. (1993) Journal of Neuroscience Methods 50, 205-216). Specifically, 6 μM Calcein-AM (3′, 6′-Di-(O-acetyl)-2′-7′-bis[N,N-bis(carboxymethyl)aminomethyl]fluorescein, tetraacetoxymethyl ester; Dojindo, Cat. #349-07201) was added to the neurons; and 30 minutes or longer after Calcein-AM treatment, fluorescence (ex=490 nm, em=515 nm) was observed by fluorescence microscopy, and measured by a spectrometer. Specific fluorescence was calculated by subtracting basal fluorescence from total fluorescence. Basal fluorescence was assigned to be the value calculated from linear trypan blue positivity-fluorescence intensity relationship, corresponding to 100% trypan blue positivity.

[2] = test system: primary cultured cortical neurons treated with Aβ1-43; assay: Aβ1-43-induced cell death of primary cultured cortical neurons, trypan blue exclusion assay; assay type: cell-based; details: for cell mortality: mean ±S.D.; for effect on Aβ1-43-induced cell death: 25 μM Aβ1-43, confirmed by LDH release and Calcein staining
Method: Primary culture of mouse cortical neurons was performed in poly-D-lysine-coated 24-well plates (Sumitomo Bakelite) in the absence of serum and in the presence of N2 supplement, as described in literature (Ecksioglu, Y. Z. et al. (1994) Brain Res. 644, 282-90). The purity of neurons prepared according to the method was >98%. The prepared neurons (1.25×10^5/well, 250 μl media/well) were preincubated in the absence or presence of 10 nM or 10 μM sHN polypeptides for 16 hours; and were treated with 25 μM Aβ1-43 in the absence or presence of sHN polypeptides at the same concentrations for 24 to 72 hours. Since primary cultured neurons are damaged even by temporary dryness during medium exchange, treatment of the cells by Aβ1-43 was performed as follows. First, half of the volume of the old medium (125 μl) was discarded. Then, 125 μl of pre-warmed fresh medium containing 50 μM Aβ1-43 and sHN with a concentration indicated above were added to the culture.
as §2

[3] = test system: F11 cells transfected with V642I APP cDNA; assay: V642I APP-induced F11 cell death, trypan blue exclusion assay; assay type: cell-based; details: for cell mortality (%): V642I APP cDNA, treated with 10 μM sHN polypeptides, mean ±S.D.
Method: as §1, §2

[4] = test system: F11/EcR cells transfected with ecdysone-inducible Q79 plasmid; assay: Polyglutamine Q79-induced F11/EcR cell death (ecdysone-inducible), trypan blue exclusion assay; assay type: cell-based; details: 1 μM polypeptide, 72 hours
Method: F11/EcR cell experiment using ecdysone was conducted as follows: F11/EcR cells were seeded at 7×10^4/well into a 6-well plate; cultured for 12 to 16 hours in HamF-12 media containing 18% FBS; and were similarly transfected in the absence of serum for 3 hours with 1 μg of ecdysone-inducible plasmid alone, or with 1 μg of HN-encoding plasmid, as mentioned above. After culturing for 12 to 16 hours in HamF-12 media containing 18% FBS, the cells were cultured for 2 hours in HamF-12 media containing 10% FBS, then ecdysone (Ponasterone) was added to the media (final concentration of 40 μM). Cell death was measured 72 hours after ecdysone treatment. Experiments using synthetic HN polypeptides were conducted as follows: cells were similarly transfected for 3 hours with FAD genes in the absence of serum; cultured for 12 to 16 hours in HamF-12 media containing 18% FBS; cultured for 2 hours in HamF-12 media containing 10% FBS and various concentrations of HN polypeptide; and then, 40 μM Ponasterone was added to the media. Cell death was measured by trypan blue exclusion assay after 72 hours from the ecdysone treatment. HD/SCA-associated Q79 cDNAs were also similarly transfected, and the neurotoxicity was tested.
(§3) Trypan blue exclusion assay was performed as follows. […] Within 3 minutes of the trypan blue solution addition, stained cells were counted. Cell mortality was determined [100-cell survival rate (%)] based on the stained cell count. […] Specifically, 6 μM Calcein-AM (3′, 6′-Di-(O-acetyl)-2′-7′-bis[N,N-bis(carboxymethyl)aminomethyl]fluorescein, tetraacetoxymethyl ester; Dojindo, Cat. #349-07201) was added to the neurons; and 30 minutes or longer after Calcein-AM treatment, fluorescence (ex=490 nm, em=515 nm) was observed by fluorescence microscopy, and measured by a spectrometer. Specific fluorescence was calculated by subtracting basal fluorescence from total fluorescence. Basal fluorescence was assigned to be the value calculated from linear trypan blue positivity-fluorescence intensity relationship, corresponding to 100% trypan blue positivity.

[5] = test system: F11 cells transfected with SOD1 mutants (A4T, G85R, G93A); assay: ALS-associated SOD1 mutant-induced F11 cell death, trypan blue exclusion assay; assay type: cell-based, rat/mouse hybrid; details: 100 μM polypeptide
Method: as §1
as §3, with “Basal fluorescence was assigned to be the value calculated from linear trypan blue positivity-fluorescence intensity relationship, corresponding to 100% trypan blue positivity.” left out

[6] = 25 μM Aβ1-43, 72 hours, 10 nM polypeptide

In the case of “AGA-HNG: HNG (S14G HN) mutated at two positions, R4A/F6A (MAPAGASCLLLLTGEIDLPVKRRA; artificially synthesized sequence (AGA-HN))”, the “concentration showing significant or sufficient neuroprotective action” value [1] is reported as “about 1 nM”, the “concentration giving complete antagonism/rescue of neuronal death” value [1] is reported as 0.1 nM and the “neuroprotective activity relative to HNG” value [1] is reported as “higher rescue activity compared to HNG; also recorded: several folds higher”. For the same substance, the “concentration giving complete rescue of cell death by Aβ” value ([2]; 25 μM Aβ1-43, 72 hours) was 0.3 nM.

In the case of “ARGFSCLLLLTGEIDLP [SEQ ID NO: 25, ARGFSCLLLLTGEIDLP]”, the cell mortality [2, 6] is reported as 75.3±4.4%.

“HN-17: 17 amino acids from Pro3 to Pro19 of Humanin (PRGFSCLLLLTSEIDLP; artificially synthesized sequence (deltaN2 deltaC5-Humanin; HN-17 ))” was tested, and the “antagonizing activity on FAD gene-induced cell death” value ([1]; 10 μM polypeptide, four FAD genes) was “sufficient antagonizing activity”, the “activity to suppress cell death compared to the original HN” value ([1]; M146L PS-1) was “slightly lower activity” and the “concentration showing sufficient protective action” value ([1]; any of the four FAD genes, dose-response) was “low μM”.

For MAPRGFSALLLLTSEIDLPVKRRA [sHNA], the “cell mortality (%)” value ([3]; 72 hours) was 52.5 ± 3.0%, the “suppression of V642I APP-induced cell death” value ([3]; concentrations up to 100 μM) was “did not significantly suppress” and the “antagonism of cell death by FAD genes” value ([1]; NL-APP, M146L PS-1, N141I PS-2, up to 100 μM) was “did not antagonize”. For the same substance, the “effect on Aβ1-43-induced cell death” value ([2]; 10 μM polypeptide) was “did not show any effect”, the “effect on Q79-induced cell death, synthetic polypeptide” value [4] was “Extensive cell death” and the “effect on SOD1 mutant-induced cell death, synthetic polypeptide” value [5] was “couldn't be suppressed”.

For MAPRGFSCLLLLTGEIDLPVKRRA [sHNG], the IC50 ([3]; 72 h) was roughly 0.1 nM, the “concentration giving complete antagonizing effect on V642I APP-induced cell death” value ([3]; synthetic polypeptide, 72 hours) was no more than 10 nM and the “concentration showing significant or sufficient neuroprotective action” value [1] was “about 1 nM”. The “concentration giving complete suppression of cell death” value ([1]; NL-APP, M146L PS-1, N141I PS-2) was no more than 10 nM, the “concentration giving complete antagonism/rescue of neuronal death” value [1] was no more than 10 nM and the “effect on Aβ1-43-induced cell death” value ([2]; 10 nM polypeptide) was “completely protected”. For the same substance, the “effect on Q79-induced cell death, synthetic polypeptide” value [4] was “Extensive cell death” and the “effect on SOD1 mutant-induced cell death, synthetic polypeptide” value [5] was “couldn't be suppressed”.

In the case of MAPRGFSCRLLLTSEIDLPVKRRA [sHNR], the “cell mortality (%)” value ([3]; 72 hours) is reported as 17.7 ± 2.2 %.

PRGFSCLLLLTGEIDLP [HNG-17] was tested, and the “suppression of FAD gene-induced cell death” value [1] was “completely antagonize”, the cell mortality [2, 6] was 28.8±2.3% and the “effect on Aβ1-43-induced cell death” value ([2]; 10 nM polypeptide) was “completely antagonize”.

“SEQ ID NO: 46: HNG with Cys at position 8 substituted with His (MAPRGFSHLLLLTGEIDLPVKRRA)” was tested, and the “suppression of V642I APP-induced cell death” value ([3]; 10 nM polypeptide) was “significant suppression activity”, the “suppression of FAD gene-induced cell death” value [1] was “inhibited neuronal death” and the “neuroprotective activity relative to HNG” value [1] was “slight decrease in the cell death suppression activity”. The “effect on Aβ1-43-induced cell death” value ([2]; 10 nM polypeptide) was “suppressed cell death”.

For “SEQ ID NO: 48: HNG with Cys at position 8 substituted with Lys (MAPRGFSKLLLLTGEIDLPVKRRA)”, the “suppression of V642I APP-induced cell death” value ([3]; 10 nM polypeptide) was “significant suppression activity”, the “suppression of FAD gene-induced cell death” value [1] was “inhibited neuronal death” and the “neuroprotective activity relative to HNG” value [1] was “comparable to the original HNG polypeptide”. For the same substance, the “effect on Aβ1-43-induced cell death” value ([2]; 10 nM polypeptide) was “suppressed cell death”.

With “SEQ ID NO: 54: HNG with Cys at position 8 substituted with Arg (MAPRGFSRLLLLTGEIDLPVKRRA)” the “suppression of V642I APP-induced cell death” value ([3]; 10 nM polypeptide) was “significant suppression activity”, the “suppression of FAD gene-induced cell death” value [1] was “inhibited neuronal death” and the “neuroprotective activity relative to HNG” value [1] was “comparable to the original HNG polypeptide”. For the same substance, the “effect on Aβ1-43-induced cell death” value ([2]; 10 nM polypeptide) was “suppressed cell death”.
